In patent US9668985B2, “Pterosin derivative-containing therapeutic preparation for disease associated with cartilage loss, cartilage degeneration and/or cartilage thinning” (KYOTO UNIVERSITY, priority 2013, dated 2017):
“Also recorded” adds a separate entry of the source.

How the values were obtained:
SIK3 = SIK3 (Homo sapiens, UniProt Q9Y2K2); assay: CRTC2 activity as a measure of SIK3 inhibitory activity; type: cell-based; conditions: 150 μM
Protocol: Comparative evaluation of pterosin derivatives was performed in terms of the inhibitory effect on SIK3 signaling. As a measure of the SIK3 inhibitory activity, the induced activity of the transcription coupling factor CRTC2 (which is also referred to as TORC2, serves as a coupling factor of the transcription factor CREB, and is an inhibition target of SIK3) was measured according to the method described in PCT/JP2012/063709.

[1] = tested on: articular cartilage on the medial femoral epicondyle; assay: intra-articular administration into the knee of C57BL/6 mice, articular cartilage histology; type: in vivo, mouse; conditions: 3 times a week, 4 weeks
Excerpt: After the administration was continued for 4 weeks, the knee joint was dissected and then stained with safranin O/fast green/iron hematoxylin.

[2] = tested on: mouse primary chondrocytes; assay: quantitative RT-PCR in pellet-cultured mouse primary chondrocytes; type: cell-based; conditions: for mRNA amount of Col10a1 relative to Gapdh: cell pellet, 300 μM, 2 or 4 weeks after addition
Protocol: (§1) Primary chondrocytes obtained from the distal femoral epiphyseal cartilage and the proximal tibial epiphyseal cartilage of 1- to 5-day-old mice were pelletized by centrifugation, and to the cell pellet, the extracted pterosin B at a given concentration (0 μM (only DMSO as a vehicle), 100 μM, 200 μM or 300 μM) was added in DMEM supplemented with 10% fetal calf serum. […] In addition, the mRNA amounts of Col2a1, Col10a1 and Sik3 relative to Gapdh in the cell pellet were measured by quantitative RT-PCR. […] Col2a1 is a gene relevant to […], and Col10a1 is a gene indicative of hypertrophic differentiation of chondrocytes.
In the same manner as in Example 1, primary chondrocytes obtained from 1- to 5-day-old mice were pelletized, and to the cell pellet, a pterosin derivative (synthesized pterosin B or pterosin Z) at 300 μM was added in DMEM supplemented with 10% fetal calf serum. At 2 or 4 weeks after the addition, the cell pellet was collected and the mRNA amount of Col10a1 relative to Gapdh was measured by quantitative RT-PCR. As a result, it was shown that Col10a1 was decreased by the addition of pterosin Z as well as the addition of the synthesized pterosin B (FIG. 9).

[3] = tested on: mouse primary chondrocytes; assay: safranin O staining of pellet-cultured mouse primary chondrocytes; type: cell-based; conditions: cell pellet, 100, 200 or 300 μM, 28 days after addition
Protocol: as §1

[4] = tested on: embryonic mouse metatarsal bone; assay: tissue culture of embryonic mouse metatarsal bone, safranin O, BrdU and Col10a1 staining; type: cell-based; conditions: 300 μM, 7 days
Protocol: The metatarsal bone was isolated from a mouse embryo of E15.5, and tissue culture of the bone was performed in DMEM supplemented with 10% fetal calf serum. To the culture medium, 300 μM of the extracted pterosin B or the synthesized pterosin B was added, and the culture was further continued. Seven days later, the metatarsal bone was collected and its histological sections were prepared. At 8 hours before the collection of the metatarsal bone, BrdU was added to the culture medium. The histological sections of the metatarsal bone were stained with safranin O and immunostained with an anti-BrdU antibody. As a result, it was shown that, in the presence of the extracted pterosin B or the synthesized pterosin B, the safranin O-stained area and the BrdU-positive cell number were increased (FIGS. 2 and 3). Meanwhile, the number of hypertrophic chondrocytes was decreased in the presence of the extracted pterosin B or the synthesized pterosin B (FIG. 4).

human chondrocytes [5] = assay: safranin O staining of pellet-cultured human primary chondrocytes; type: cell-based; conditions: 300 μM, on and after 14 days (14 or 28 days)
Protocol: (§2) Chondrocytes collected from a person with medial compartmental idiopathic osteonecrosis under informed consent were cultured in DMEM (Dulbecco's Modified Eagle's Medium) supplemented with 10% fetal calf serum for 7 days (an image of a 3-day culture is shown in FIG. 5A), and then pelletized by centrifugation (FIG. 5A). The human chondrocyte pellet was cultured in DMEM supplemented with 10% fetal calf serum and 300 μM of the extracted pterosin B for 14 or 28 days. The cell pellet was collected and then stained with safranin O. As a result, it was shown that the staining intensity in the presence of the extracted pterosin B was increased on and after 14 days from the addition of the extracted pterosin B (FIG. 5B). In addition, the mRNA amounts of COL2A1, COL11A2, ACAN, SOX9, COL10A1 and COL1A1 relative to GAPDH in the cell pellet were measured by quantitative RT-PCR. As a result, the mRNA amounts of COL2A1, COL11A2, ACAN and SOX9 were increased by the addition of the […] pterosin B, while the mRNA amounts of COL10A1 and COL1A1 were decreased by the addition of the extracted pterosin B (FIG. 6). […] Therefore, pterosin B is considered to have the effect of promoting hyaline cartilage growth in humans as well.

human chondrocytes [6] = assay: quantitative RT-PCR in pellet-cultured human primary chondrocytes; type: cell-based; conditions: 300 μM, pellet culture 2 weeks
Protocol: as §2

[7] = cell pellet, 100, 200 or 300 μM, 28 days

SIK3, sequence (Q9Y2K2 whole entry, species assumed): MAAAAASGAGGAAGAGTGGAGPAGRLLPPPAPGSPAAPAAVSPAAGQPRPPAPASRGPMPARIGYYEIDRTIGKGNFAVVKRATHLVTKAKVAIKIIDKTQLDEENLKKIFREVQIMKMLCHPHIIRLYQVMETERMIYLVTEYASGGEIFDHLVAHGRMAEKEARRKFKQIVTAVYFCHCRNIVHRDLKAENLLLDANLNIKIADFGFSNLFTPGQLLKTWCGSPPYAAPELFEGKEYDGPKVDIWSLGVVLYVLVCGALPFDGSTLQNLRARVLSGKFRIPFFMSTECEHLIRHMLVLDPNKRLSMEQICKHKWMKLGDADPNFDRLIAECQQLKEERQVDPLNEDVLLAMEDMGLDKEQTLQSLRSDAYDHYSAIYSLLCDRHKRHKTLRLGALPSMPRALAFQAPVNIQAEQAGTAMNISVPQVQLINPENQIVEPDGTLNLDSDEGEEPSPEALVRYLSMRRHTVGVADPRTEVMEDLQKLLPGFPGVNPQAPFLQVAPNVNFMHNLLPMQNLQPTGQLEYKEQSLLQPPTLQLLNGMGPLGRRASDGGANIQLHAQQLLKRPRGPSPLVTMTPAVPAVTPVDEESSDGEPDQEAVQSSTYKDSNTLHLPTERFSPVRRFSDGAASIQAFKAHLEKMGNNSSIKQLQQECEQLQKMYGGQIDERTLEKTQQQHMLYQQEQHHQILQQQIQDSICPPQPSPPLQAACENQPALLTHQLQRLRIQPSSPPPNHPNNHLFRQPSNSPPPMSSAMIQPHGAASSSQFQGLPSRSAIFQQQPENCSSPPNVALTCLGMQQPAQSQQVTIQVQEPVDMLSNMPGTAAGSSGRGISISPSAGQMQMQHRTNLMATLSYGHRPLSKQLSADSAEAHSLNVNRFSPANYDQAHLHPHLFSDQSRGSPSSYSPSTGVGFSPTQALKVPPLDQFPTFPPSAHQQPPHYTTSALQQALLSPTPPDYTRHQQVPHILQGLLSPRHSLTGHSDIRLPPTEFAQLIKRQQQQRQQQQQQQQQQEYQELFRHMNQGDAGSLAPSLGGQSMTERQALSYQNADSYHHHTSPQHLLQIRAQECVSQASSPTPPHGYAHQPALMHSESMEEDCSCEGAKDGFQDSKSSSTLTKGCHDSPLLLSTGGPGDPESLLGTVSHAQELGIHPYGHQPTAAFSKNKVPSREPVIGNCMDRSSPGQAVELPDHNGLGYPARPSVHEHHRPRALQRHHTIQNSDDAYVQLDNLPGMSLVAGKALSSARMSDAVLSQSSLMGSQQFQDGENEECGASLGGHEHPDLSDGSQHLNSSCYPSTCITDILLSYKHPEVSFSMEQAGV

With `Cc1c(O)c2c(c(C)c1CCCl)C(=O)C(C)(C)C2` [14-chloro-onitin, 14-deoxy-14-chloroonitin] the “SIK3 inhibitory activity (induced activity of CRTC2)” value (“SIK3 inhibitory activity” below) (SIK3) was “highly active than pterosin B”.
With `Cc1cc2c(c(C)c1CCO)C(=O)C(C)C2` (stereo not shown) [pterosin B] the “area of the articular cartilage on the medial femoral epicondyle” value ([1]; 300 μM or 900 μM intra-articular) was “increased with increasing concentration” and the “SIK3 inhibitory activity” value (SIK3) was “slightly inhibit”.
In the case of `Cc1cc2c(c(C)c1CCO)C(=O)C(C)(C)C2` [pterosin Z], the “mRNA amount of Col10a1 relative to Gapdh” value [2] is reported as “decreased” and the “SIK3 inhibitory activity” value (SIK3) is reported as “highly active than pterosin B”.
In the case of `Cc1cc2c(c(C)c1CCO)C(=O)C(C)C2` (stereo not shown) [extracted pterosin B, pterosin B], the “safranin O staining intensity” value [3] is reported as “increased with increasing concentration”, the “amount of Col2a1 mRNA relative to Gapdh” value [2, 7] is reported as “increased with increasing concentration” and the “amount of Col10a1 mRNA relative to Gapdh” value [2, 7] is reported as “decreased with increasing concentration”. For the same compound, the “number of hypertrophic chondrocytes” value [4] was “decreased”, the “safranin O-stained area” value [4] was “increased” and the BrdU-positive cell number ([4]; BrdU 8 hours before collection) was “increased”. For the same compound, the “safranin O staining intensity” value (human chondrocytes [5]) was “increased”, the “mRNA amount of COL1A1 relative to GAPDH” value (human chondrocytes [6]) was “decreased” and the “mRNA amount of COL10A1 relative to GAPDH” value (human chondrocytes [6]) was “decreased”. For the same compound, the “Findings of medial femoral epicondyle” value ([1]; 300 μM into left knee articular cavity, one line per mouse (No. 4-7)) was “No apparent abnormalities; also recorded: Moderate osteoarthritis” and the “Findings of medial femoral epicondyle” value ([1]; 900 μM into left knee articular cavity, one line per mouse (No. 8-11)) was “No apparent abnormalities; also recorded: Moderate osteoarthritis”.
`Cc1cc2c(c(C)c1CCO)C(=O)C(C)C2` (stereo not shown) [synthesized pterosin B, pterosin B] was tested, and the “mRNA amount of Col10a1 relative to Gapdh” value [2] was “decreased”, the “mRNA amount of ACAN relative to GAPDH” value (human chondrocytes [6]) was “increased” and the “mRNA amount of COL2A1 relative to GAPDH” value (human chondrocytes [6]) was “increased”. For the same compound, the “mRNA amount of COL11A2 relative to GAPDH” value (human chondrocytes [6]) was “increased” and the “mRNA amount of SOX9 relative to GAPDH” value (human chondrocytes [6]) was “increased”.
With `COCCc1c(C)c(O)c2c(c1C)C(=O)C(C)(C)C2` [14-O-methyl-onitin, 14-O-methylonitin] the “SIK3 inhibitory activity” value (SIK3) was “highly active than pterosin B”.
With `COCCc1c(C)cc2c(c1C)C(=O)C(C)(C)C2` [pterosin I] the “SIK3 inhibitory activity” value (SIK3) was “highly active than pterosin B”.
`Cc1c(O)c2c(c(C)c1CCO)C(=O)C(C)(C)C2` [onitin] was tested, and the “SIK3 inhibitory activity” value (SIK3) was “highly active than pterosin B”.
With `COCCc1c(C)cc2c(c1C)C(=O)C(OC)C2` (stereo not shown) [14-O-methyl-pterosin G, 14-O-methylpterosin G] the “SIK3 inhibitory activity” value (SIK3) was “highly active than pterosin B”.
